Data from ChEMBL document CHEMBL5291721, “A preclinical secondary pharmacology resource illuminates target-adverse drug reaction associations of marketed drugs” (Nat Commun, 2023).

Assays:
[1] = target: T1, Adenosine receptor A1 (Homo sapiens, UniProt P30542)
T1 sequence (P30542 whole entry): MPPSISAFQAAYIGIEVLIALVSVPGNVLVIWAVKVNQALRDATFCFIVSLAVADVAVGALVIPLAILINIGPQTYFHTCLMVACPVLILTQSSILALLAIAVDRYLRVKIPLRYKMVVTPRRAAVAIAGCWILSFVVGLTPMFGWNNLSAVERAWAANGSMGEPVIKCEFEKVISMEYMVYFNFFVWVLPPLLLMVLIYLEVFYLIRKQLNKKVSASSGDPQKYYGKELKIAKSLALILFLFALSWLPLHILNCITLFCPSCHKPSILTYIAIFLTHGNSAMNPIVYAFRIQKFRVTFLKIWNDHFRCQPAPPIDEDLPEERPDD

[2] = target: Voltage-dependent N-type calcium channel subunit alpha-1B (Rattus norvegicus, UniProt Q02294); assay type: functional
Voltage-dependent N-type calcium channel subunit alpha-1B, sequence (Q02294 whole entry): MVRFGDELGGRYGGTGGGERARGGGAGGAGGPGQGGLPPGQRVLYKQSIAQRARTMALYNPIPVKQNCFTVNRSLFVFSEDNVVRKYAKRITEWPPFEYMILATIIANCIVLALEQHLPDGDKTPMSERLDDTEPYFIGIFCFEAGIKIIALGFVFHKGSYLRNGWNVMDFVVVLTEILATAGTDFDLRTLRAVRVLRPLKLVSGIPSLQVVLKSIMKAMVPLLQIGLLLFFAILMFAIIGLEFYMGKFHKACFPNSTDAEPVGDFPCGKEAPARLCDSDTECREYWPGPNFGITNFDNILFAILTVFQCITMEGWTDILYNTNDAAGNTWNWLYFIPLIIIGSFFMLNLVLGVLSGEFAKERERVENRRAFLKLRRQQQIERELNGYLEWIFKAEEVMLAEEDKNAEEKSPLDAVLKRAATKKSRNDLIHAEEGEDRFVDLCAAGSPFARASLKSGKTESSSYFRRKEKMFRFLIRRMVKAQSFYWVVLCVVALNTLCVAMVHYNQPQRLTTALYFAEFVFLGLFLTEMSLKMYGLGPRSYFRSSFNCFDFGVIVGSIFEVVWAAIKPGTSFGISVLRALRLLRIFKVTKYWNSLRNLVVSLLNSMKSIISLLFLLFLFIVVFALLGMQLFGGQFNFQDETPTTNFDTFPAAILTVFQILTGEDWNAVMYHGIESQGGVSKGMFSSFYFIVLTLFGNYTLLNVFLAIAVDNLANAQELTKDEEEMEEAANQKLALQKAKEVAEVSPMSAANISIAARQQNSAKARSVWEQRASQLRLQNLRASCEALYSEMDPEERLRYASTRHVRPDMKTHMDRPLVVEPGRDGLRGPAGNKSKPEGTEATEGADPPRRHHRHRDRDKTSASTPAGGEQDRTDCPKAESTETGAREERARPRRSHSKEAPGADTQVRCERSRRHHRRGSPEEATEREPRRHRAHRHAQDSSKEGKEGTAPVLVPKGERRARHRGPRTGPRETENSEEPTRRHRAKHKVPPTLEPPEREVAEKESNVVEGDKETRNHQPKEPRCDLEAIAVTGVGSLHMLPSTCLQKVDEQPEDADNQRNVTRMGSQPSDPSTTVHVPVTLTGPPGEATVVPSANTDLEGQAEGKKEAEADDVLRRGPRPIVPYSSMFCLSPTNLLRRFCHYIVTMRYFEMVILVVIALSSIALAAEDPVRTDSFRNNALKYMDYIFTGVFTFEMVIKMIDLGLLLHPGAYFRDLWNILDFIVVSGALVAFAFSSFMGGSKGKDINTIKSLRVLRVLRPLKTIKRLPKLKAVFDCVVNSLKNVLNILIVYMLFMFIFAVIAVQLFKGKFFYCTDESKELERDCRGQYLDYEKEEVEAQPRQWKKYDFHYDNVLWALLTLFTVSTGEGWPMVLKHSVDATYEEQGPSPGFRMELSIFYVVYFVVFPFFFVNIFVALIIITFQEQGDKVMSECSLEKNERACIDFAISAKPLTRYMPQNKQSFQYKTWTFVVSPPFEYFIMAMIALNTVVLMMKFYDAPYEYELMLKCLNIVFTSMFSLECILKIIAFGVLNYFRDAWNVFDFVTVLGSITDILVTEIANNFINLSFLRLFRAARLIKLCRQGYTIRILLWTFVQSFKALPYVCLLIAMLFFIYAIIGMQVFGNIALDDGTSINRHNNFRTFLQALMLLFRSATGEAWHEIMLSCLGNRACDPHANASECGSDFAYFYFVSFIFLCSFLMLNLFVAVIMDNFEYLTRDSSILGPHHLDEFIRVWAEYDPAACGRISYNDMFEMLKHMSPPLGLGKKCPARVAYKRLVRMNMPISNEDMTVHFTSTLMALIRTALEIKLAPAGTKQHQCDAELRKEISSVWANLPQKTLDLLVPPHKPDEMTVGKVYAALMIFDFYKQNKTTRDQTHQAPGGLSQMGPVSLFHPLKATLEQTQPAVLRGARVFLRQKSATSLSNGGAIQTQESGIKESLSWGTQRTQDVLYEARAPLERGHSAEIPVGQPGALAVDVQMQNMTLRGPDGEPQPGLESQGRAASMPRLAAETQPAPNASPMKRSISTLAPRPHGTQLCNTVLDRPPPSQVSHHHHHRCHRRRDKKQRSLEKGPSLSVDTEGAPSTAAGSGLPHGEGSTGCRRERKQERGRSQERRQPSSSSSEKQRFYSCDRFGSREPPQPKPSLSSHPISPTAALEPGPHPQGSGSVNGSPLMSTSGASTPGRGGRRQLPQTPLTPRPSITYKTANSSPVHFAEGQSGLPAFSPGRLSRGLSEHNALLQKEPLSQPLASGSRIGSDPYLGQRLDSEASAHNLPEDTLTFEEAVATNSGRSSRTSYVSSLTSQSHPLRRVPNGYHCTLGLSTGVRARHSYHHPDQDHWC

[3] = target: T2, Alpha-2A adrenergic receptor (Homo sapiens, UniProt P08913)
T2 sequence (P08913 whole entry): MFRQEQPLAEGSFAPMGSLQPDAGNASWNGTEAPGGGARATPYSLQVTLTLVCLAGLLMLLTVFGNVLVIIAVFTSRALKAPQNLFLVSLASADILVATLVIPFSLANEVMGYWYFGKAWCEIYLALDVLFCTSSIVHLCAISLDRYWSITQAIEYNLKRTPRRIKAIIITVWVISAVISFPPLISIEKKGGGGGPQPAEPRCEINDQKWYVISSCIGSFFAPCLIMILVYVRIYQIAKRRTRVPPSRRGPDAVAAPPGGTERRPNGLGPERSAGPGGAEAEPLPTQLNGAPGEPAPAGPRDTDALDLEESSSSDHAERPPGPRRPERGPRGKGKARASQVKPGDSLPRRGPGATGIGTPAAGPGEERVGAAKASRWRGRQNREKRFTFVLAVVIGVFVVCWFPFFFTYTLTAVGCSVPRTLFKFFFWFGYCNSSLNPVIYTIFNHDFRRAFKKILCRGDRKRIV

[4] = target: T3, Muscarinic acetylcholine receptor M2 (Homo sapiens, UniProt P08172)
T3 sequence (P08172 whole entry): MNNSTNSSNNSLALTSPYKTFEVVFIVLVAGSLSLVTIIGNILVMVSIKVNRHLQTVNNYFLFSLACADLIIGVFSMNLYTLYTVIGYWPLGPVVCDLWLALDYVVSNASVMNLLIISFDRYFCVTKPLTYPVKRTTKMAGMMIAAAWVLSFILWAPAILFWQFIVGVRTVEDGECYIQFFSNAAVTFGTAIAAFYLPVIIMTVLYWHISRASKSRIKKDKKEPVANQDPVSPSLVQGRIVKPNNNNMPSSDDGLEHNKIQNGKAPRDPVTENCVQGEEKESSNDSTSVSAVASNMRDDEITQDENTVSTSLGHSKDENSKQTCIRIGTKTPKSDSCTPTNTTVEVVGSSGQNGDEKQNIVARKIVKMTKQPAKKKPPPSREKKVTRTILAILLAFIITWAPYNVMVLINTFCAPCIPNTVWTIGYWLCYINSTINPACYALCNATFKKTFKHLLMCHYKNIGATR

[5] = target: D(1A) dopamine receptor (Homo sapiens, UniProt P21728)
[6] = target: Histamine H1 receptor (Homo sapiens, UniProt P35367); assay type: functional, cell-based
Histamine H1 receptor, sequence (P35367 whole entry): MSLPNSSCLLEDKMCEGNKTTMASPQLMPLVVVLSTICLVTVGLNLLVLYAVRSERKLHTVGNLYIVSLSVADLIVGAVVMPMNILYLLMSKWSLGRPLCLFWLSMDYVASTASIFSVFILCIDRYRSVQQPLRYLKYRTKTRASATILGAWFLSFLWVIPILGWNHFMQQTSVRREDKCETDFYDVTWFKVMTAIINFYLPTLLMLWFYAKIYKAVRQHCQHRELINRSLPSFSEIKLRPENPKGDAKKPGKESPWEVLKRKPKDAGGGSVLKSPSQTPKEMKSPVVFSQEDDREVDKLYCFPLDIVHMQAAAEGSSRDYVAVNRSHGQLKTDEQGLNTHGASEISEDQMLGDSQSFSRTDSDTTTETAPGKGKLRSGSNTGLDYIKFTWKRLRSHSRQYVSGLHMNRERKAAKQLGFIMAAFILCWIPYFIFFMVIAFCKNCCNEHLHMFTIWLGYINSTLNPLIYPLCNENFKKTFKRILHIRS

[7] = target: T4, Peroxisome proliferator-activated receptor gamma (Homo sapiens, UniProt P37231); assay type: functional
T4 sequence (P37231 whole entry): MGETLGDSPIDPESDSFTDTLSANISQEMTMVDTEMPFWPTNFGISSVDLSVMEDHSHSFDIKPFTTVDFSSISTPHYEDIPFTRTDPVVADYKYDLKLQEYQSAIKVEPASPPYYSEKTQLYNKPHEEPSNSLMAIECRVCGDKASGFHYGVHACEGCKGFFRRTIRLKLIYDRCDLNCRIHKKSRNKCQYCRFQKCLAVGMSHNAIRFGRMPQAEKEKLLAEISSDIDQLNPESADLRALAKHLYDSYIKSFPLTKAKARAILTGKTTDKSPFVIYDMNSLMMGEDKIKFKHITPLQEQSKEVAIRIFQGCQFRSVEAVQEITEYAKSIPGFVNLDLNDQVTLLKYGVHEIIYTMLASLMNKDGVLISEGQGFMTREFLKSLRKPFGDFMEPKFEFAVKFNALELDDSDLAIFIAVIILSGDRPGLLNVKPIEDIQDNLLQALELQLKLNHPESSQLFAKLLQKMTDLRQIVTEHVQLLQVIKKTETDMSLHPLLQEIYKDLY

[8] = target: T5, Androgen receptor (Rattus norvegicus, UniProt P15207)
T5 sequence (P15207 whole entry): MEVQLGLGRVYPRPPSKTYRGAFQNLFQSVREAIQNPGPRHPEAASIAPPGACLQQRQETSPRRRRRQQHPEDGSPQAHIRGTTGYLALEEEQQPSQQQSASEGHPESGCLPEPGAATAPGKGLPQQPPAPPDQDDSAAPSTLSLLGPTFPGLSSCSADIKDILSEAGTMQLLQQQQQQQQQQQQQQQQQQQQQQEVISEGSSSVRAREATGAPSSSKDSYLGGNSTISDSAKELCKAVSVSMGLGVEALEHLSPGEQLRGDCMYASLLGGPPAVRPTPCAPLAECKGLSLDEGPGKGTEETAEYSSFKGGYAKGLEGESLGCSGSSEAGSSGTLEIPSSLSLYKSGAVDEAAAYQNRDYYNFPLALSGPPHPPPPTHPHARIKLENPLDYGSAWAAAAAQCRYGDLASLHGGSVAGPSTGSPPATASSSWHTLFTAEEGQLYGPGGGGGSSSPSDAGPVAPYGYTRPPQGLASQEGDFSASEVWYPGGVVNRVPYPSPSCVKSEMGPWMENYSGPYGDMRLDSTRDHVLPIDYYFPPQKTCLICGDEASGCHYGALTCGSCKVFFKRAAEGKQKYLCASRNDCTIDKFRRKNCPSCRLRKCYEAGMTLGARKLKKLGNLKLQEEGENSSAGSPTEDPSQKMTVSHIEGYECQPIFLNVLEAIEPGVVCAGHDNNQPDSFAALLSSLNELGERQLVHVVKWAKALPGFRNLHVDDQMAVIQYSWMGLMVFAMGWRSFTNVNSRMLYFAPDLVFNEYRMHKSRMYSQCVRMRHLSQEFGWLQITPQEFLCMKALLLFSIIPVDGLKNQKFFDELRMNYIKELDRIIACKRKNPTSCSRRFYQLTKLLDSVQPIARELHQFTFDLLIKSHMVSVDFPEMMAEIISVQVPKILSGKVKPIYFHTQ

[9] = target: Gamma-aminobutyric acid receptor subunit alpha-1/alpha-2/beta-2/gamma-2 (Homo sapiens, UniProt P14867+P18507+P47869+P47870); assay type: functional, cell-based
Gamma-aminobutyric acid receptor subunit alpha-1/alpha-2/beta-2/gamma-2, sequence (P14867 whole entry): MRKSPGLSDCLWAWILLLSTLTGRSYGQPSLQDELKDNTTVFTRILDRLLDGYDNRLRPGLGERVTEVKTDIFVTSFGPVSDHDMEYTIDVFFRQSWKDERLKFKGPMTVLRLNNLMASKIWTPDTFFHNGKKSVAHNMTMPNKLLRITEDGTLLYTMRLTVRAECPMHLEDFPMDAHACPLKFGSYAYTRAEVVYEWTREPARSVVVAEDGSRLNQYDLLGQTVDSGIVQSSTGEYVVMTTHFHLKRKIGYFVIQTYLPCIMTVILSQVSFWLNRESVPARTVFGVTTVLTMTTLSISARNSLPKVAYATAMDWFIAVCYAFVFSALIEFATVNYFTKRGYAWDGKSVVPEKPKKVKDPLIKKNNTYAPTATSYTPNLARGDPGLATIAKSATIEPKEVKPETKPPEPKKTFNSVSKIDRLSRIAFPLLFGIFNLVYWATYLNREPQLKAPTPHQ
Gamma-aminobutyric acid receptor subunit alpha-1/alpha-2/beta-2/gamma-2, sequence (P47870 whole entry): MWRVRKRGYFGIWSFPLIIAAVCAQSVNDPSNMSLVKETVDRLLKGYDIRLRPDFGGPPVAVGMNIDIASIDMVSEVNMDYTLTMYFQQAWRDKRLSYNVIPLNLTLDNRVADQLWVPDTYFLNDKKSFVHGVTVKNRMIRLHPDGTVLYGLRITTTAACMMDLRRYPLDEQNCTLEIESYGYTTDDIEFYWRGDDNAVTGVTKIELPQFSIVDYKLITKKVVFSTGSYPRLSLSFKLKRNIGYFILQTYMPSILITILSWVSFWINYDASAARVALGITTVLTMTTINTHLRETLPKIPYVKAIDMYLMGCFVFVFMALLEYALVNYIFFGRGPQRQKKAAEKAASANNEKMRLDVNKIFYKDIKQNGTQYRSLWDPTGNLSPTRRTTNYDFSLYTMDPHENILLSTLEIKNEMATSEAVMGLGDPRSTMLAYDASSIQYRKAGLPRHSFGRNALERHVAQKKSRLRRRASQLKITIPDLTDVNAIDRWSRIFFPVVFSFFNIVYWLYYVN
Gamma-aminobutyric acid receptor subunit alpha-1/alpha-2/beta-2/gamma-2, sequence (P18507 whole entry): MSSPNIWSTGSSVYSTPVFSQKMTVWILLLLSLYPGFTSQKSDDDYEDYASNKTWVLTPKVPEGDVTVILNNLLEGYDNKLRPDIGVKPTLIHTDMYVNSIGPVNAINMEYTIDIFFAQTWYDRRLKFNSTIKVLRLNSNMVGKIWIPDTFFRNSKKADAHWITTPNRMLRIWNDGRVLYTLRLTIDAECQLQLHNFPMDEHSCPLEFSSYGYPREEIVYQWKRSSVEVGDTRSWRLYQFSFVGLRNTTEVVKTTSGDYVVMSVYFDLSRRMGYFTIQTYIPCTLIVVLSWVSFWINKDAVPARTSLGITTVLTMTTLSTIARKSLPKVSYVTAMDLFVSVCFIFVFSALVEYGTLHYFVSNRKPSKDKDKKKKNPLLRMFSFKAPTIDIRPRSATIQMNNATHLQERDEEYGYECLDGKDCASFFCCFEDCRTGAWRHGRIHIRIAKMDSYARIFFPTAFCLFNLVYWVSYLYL
Gamma-aminobutyric acid receptor subunit alpha-1/alpha-2/beta-2/gamma-2, sequence (P47869 whole entry): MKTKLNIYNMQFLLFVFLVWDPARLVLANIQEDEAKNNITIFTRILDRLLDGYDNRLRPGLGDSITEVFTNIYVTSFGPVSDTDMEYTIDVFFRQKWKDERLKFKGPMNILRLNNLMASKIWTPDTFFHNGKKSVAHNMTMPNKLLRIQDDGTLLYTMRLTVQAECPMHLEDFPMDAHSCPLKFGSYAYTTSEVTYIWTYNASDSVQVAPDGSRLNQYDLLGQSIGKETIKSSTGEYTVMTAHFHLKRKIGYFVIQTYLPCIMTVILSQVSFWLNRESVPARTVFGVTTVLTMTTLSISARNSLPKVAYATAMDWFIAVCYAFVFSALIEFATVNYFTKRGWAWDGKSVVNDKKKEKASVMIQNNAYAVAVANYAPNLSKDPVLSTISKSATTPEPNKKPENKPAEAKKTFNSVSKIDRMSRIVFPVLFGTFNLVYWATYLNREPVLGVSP
Note: assay procedure not described here.

With CC(=O)O[C@]1(C(C)=O)CC[C@H]2[C@@H]3C=C(Cl)C4=CC(=O)CC[C@]4(C)[C@H]3CC[C@@]21C [CHLORMADINONE ACETATE] the AC50 [1] was > 30 µM.

For [H]/N=C(/N)N/C(=N/[H])NCCc1ccccc1 [PHENFORMIN], the AC50 [2] was > 10 µM, the AC50 [3] was 6.71 µM and the AC50 [4] was > 10 µM. The AC50 [5] was > 10 µM.

In the case of CCC(=O)O[C@]1(C(=O)SCF)[C@H](C)C[C@H]2[C@@H]3C[C@H](F)C4=CC(=O)C=C[C@]4(C)[C@@]3(F)[C@@H](O)C[C@@]21C [FLUTICASONE PROPIONATE], the AC50 [2] is reported as > 10 µM, the AC50 [3] is reported as > 10 µM and the AC50 [4] is reported as > 10 µM. For the same compound, the AC50 [5] was > 10 µM.

In the case of CC12CC3CC(C)(C1)CC(N)(C3)C2 [MEMANTINE], the AC50 [2] is reported as > 10 µM and the AC50 [6] is reported as > 30 µM.

CCN(CC)C(=S)S [DITIOCARB] was tested, and the AC50 [1] was > 30 µM.

In the case of CC(C)COCC(CN(Cc1ccccc1)c1ccccc1)N1CCCC1 (stereo not drawn) [BEPRIDIL], the AC50 [7] is reported as > 30 µM.

CCC1(c2ccccc2)CCC(=O)NC1=O (stereo not drawn) [GLUTETHIMIDE] was tested, and the AC50 [8] was > 10 µM.

In the case of CC[C@@H]([C@H](C)O)n1ncn(-c2ccc(N3CCN(c4ccc(OC[C@@H]5CO[C@@](Cn6cncn6)(c6ccc(F)cc6F)C5)cc4)CC3)cc2)c1=O [POSACONAZOLE], the AC50 [1] is reported as > 30 µM.

CCC(C)C(CC)C(N)=O (stereo not drawn) [VALNOCTAMIDE] was tested, and the AC50 [9] was > 30 µM and the AC50 [6] was > 30 µM.

CCOC(=O)[C@H](CCc1ccccc1)N[C@@H](C)C(=O)N(CC(=O)O)C1Cc2ccccc2C1 was tested, and the AC50 [1] was > 30 µM.

In the case of CCOC(=O)C1=C(C)NC(C)=C(C(=O)OC)C1c1cccc([N+](=O)[O-])c1 (stereo not drawn) [NITRENDIPINE], the AC50 [2] is reported as > 10 µM, the AC50 [3] is reported as > 10 µM and the AC50 [4] is reported as > 10 µM. The AC50 [5] was > 10 µM.

For CNC1=Nc2ccc(Cl)cc2C(c2ccccc2)=[N+]([O-])C1 [CHLORDIAZEPOXIDE], the AC50 [8] was > 30 µM and the AC50 [3] was > 10 µM.

With C/N=C(\NC)NCc1ccccc1 [BETHANIDINE] the AC50 [9] was > 30 µM and the AC50 [7] was > 30 µM.

C[C@H](Cc1ccc(O)c(O)c1)[C@@H](C)Cc1ccc(O)c(O)c1 [MASOPROCOL] gave an AC50 [6] of 23 µM and an AC50 [7] of 0.4 µM.

In the case of CCC[C@H](NC(=O)[C@@H]1[C@H]2CCC[C@H]2CN1C(=O)[C@@H](NC(=O)[C@@H](NC(=O)c1cnccn1)C1CCCCC1)C(C)(C)C)C(=O)C(=O)NC1CC1, the AC50 [8] is reported as > 30 µM, the AC50 [2] is reported as > 10 µM and the AC50 [3] is reported as > 10 µM. For the same compound, the AC50 [4] was > 10 µM and the AC50 [5] was > 10 µM.

Cc1cc(C(C)(C)C)cc(C)c1CC1=NCCN1 [XYLOMETAZOLINE] was tested, and the AC50 [9] was > 30 µM and the AC50 [3] was 0.03 µM.

CC1OC2(CS1)CN1CCC2CC1 (stereo not drawn) [CEVIMELINE] was tested, and the AC50 [8] was > 10 µM.

In the case of OC1(c2ccc(Cl)cc2)c2ccccc2C2=NCCN21 (stereo not drawn) [MAZINDOL], the AC50 [8] is reported as > 30 µM, the AC50 [2] is reported as > 10 µM and the AC50 [3] is reported as > 10 µM. The AC50 [4] was > 10 µM and the AC50 [5] was > 10 µM.

With Oc1ccc2c(c1)CC[C@H](c1ccccc1)[C@@H]2c1ccc(OCCN2CCCC2)cc1 [LASOFOXIFENE] the AC50 [9] was > 30 µM and the AC50 [7] was 18 µM.

With CCC(C)C1(CC)C(=O)NC(=O)NC1=O (stereo not drawn) [BUTABARBITAL] the AC50 [7] was > 30 µM.

For CC(=O)N[C@@H](CS)C(=O)O [ACETYLCYSTEINE], the AC50 [6] was > 30 µM.

CN1CCN(C2=Nc3ccccc3Oc3ccc(Cl)cc32)CC1 [LOXAPINE] was tested, and the AC50 [2] was > 10 µM and the AC50 [5] was 0.102 µM.

In the case of O=C(O)c1cn(C2CC2)c2cc(N3CCNCC3)c(F)cc2c1=O [CIPROFLOXACIN], the AC50 [1] is reported as > 30 µM.

C[C@]12CC[C@@H]3c4ccc(O)cc4C[C@@H](CCCCCCCCC[S+]([O-])CCCC(F)(F)C(F)(F)F)[C@H]3[C@@H]1CC[C@@H]2O (stereo partly drawn) [FULVESTRANT] was tested, and the AC50 [9] was > 30 µM, the AC50 [6] was > 30 µM and the AC50 [7] was 14 µM.

For CC(CCc1ccc(O)cc1)NCCc1ccc(O)c(O)c1 (stereo not drawn) [DOBUTAMINE], the AC50 [2] was > 10 µM, the AC50 [3] was 10.8 µM and the AC50 [4] was > 10 µM. The AC50 [5] was > 10 µM.

For C=C1CC[C@H](O)C/C1=C/C=C1\CCC[C@]2(C)[C@@H]([C@H](C)/C=C/[C@H](C)C(C)C)CC[C@@H]12 [ERGOCALCIFEROL], the AC50 [1] was > 30 µM.

For O=[N+]([O-])c1ccc(O)c2ncccc12 [NITROXOLINE], the AC50 [1] was > 30 µM and the AC50 [9] was > 30 µM.

For CNCc1ccc(-c2[nH]c3cc(F)cc4c3c2CCNC4=O)cc1 [RUCAPARIB], the AC50 [8] was > 30 µM.

In the case of Cc1cnc(C(=O)NCCc2ccc(S(=O)(=O)NC(=O)NC3CCCCC3)cc2)cn1 [GLIPIZIDE], the AC50 [1] is reported as > 30 µM, the AC50 [2] is reported as > 10 µM and the AC50 [3] is reported as > 10 µM.

With CC(C)NCC(O)c1ccc(O)c(O)c1 (stereo not drawn) [ISOPROTERENOL] the AC50 [2] was > 10 µM, the AC50 [4] was > 10 µM and the AC50 [5] was > 10 µM.

With CN1CCC(=C2c3ccccc3CCc3cccnc32)CC1 [AZATADINE] the AC50 [6] was 0.0665 µM, the AC50 [3] was > 10 µM and the AC50 [4] was 0.064 µM.

For CCC(=O)O[C@H]1CC[C@H]2[C@@H]3CCC4=CC(=O)CC[C@]4(C)[C@H]3CC[C@]12C [TESTOSTERONE PROPIONATE], the AC50 [8] was 1.7 µM.

With CC(N)C(O)c1ccccc1 (stereo not drawn) [PHENYLPROPANOLAMINE] the AC50 [2] was > 10 µM, the AC50 [3] was > 10 µM and the AC50 [4] was > 10 µM. The AC50 [5] was > 10 µM.
